The record followed here is article PMC8837603, “Lapcin, a potent dual topoisomerase I/II inhibitor discovered by soil metagenome guided total chemical synthesis” (Nature Communications, 2022).

The test system of assay [1] is Colo205 cells. Kind of assay: cells. The assay is classed as cell-based, human. The following applies: colon cancer; MTT, 48 h, 37 °C; RPMI-1640 + 10% FBS; 2,500 cells/well; absorbance 570 nm; n = 3 biologically independent. The protocol: (§1) An MTT (2-(4,5-dimethylthiazol-2-yl)−2,5-diphenyltetrazolium bromide) assay was used to determine the cytotoxicity of lapcin towards diverse cancer cell lines. Lapcin was dissolved in DMSO to make a 3.2 mg/mL working solution. For each cancer line detailed in Supplementary Table 5, cells at 80-90% confluency were counted and seeded in 96-well, flat bottom microplates and incubated at 37 °C with a 5% CO2 atmosphere. Outer wells were unused to avoid edge effects. After adhering for 24 h, the medium was sterilely aspirated and replaced with 100 µL of fresh medium containing lapcin or a control compound serially diluted at concentrations ranging from 8,000 to 0.00382 ng/mL. After 48 h (37 °C, 5% CO2), the medium was carefully removed and 110 µL of freshly prepared MTT solution (10 µL of 5 mg/mL MTT in PBS (pH 7.4) premixed with 100 µL of complete medium) was added to each well. After 3 h at 37 °C with 5% CO2, 100 µL of solubilization solution (40% DMF, 16% SDS and 2% acetic acid in H2O) was added to each well and precipitated formazan crystals were allowed to dissolve for 4 h. The absorbance of each well was then measured at 570 nm using a Tecan microplate reader.

For assay [2], the system named is HCT116 cells. The experiment in a line: cells. The format is cell-based, human. Particulars: colon cancer; MTT, 48 h, 37 °C; DMEM + 10% FBS; 10,000 cells/well; absorbance 570 nm; n = 3 biologically independent. The protocol: as §1
The test system of assay [3] is HEK293 cells. Kind of assay: cells. The format is cell-based, human. The following applies: normal cell; MTT, 48 h, 37 °C; DMEM + 10% FBS; 5, 000 cells/well; absorbance 570 nm; n = 3 biologically independent. The protocol: as §1
The subject of assay [4] is HT29 cells. The experiment in a line: cells. The format is cell-based, human. Particulars: colon cancer; MTT, 48 h, 37 °C; DMEM + 10% FBS; 2,500 cells/well; absorbance 570 nm; n = 3 biologically independent. The procedure:
as §1

For assay [5], the system named is MCF 7 cells. The experiment in a line: cells. The following applies: breast cancer; MTT, 48 h, 37 °C; DMEM + 10% FBS; 8,000 cells/well; absorbance 570 nm; n = 3 biologically independent. The format is cell-based, human. The procedure:
as §1

Assay [6] relates to NCI-H1299 cells. The experiment in a line: cells. Particulars: lung cancer; MTT, 48 h, 37 °C; RPMI-1640 + 10% FBS; 2,500 cells/well; absorbance 570 nm; n = 3 biologically independent. The assay is classed as cell-based, human. The protocol:
as §1

The subject of assay [7] is NCI-H226 cells. The experiment in a line: cells. The assay is classed as cell-based, human. The procedure: as §1
Assay [8] deals with U2OS (Bone) cells. The experiment in a line: cells. The assay is classed as cell-based, human. The procedure: as §1
Assay [9] concerns the target T1, Human Topo II (Homo sapiens, UniProt P11388).
T1 construct: purchased TopoGen, USA
The experiment in a line: Human Topoisomerase II DNA decatenation assay. The assay is classed as biochemical.
Method: The decatenation assay was conducted using a Human Topo II decatenation kit (TopoGen, USA). […] Assays were performed according to the manufacturer’s protocol. Briefly, on ice, 19 µL of master mixture was prepared by adding 4 µL of freshly prepared 5 x assay buffer (0.5 M Tris-HCl pH8.0, 1.50 M NaCl, 100 mM MgCl2, 5 mM Dithiothreitol, 300 µg/mL BSA, 20 mM ATP), 1 µL of 200 ng/µL kDNA and 5 µL of serial diluted assay compounds in 200 µL reaction tubes. 1 µL of fresh diluted topoisomerase II (1U) was then added to each reaction tube. The total reaction volume was adjusted to 20 µL with H2O. These reactions were incubated at 37 °C for 30 min and stopped by addition of 4 µL of 5 x Stop Buffer (TopoGen, USA). Samples were loaded directly onto a 1% (w/v) agarose gel containing 0.5 µg/ml ethidium bromide and separated at 140 v for 1 hour in 0.5% TBE buffer. The intensity of released (decatenated) circular rings was quantified using Analytik Jena image software. All values were normalized to the negative control wells. The intensity of decatenated band was used in the determination of IC50 of tested compounds and the curve was drawn in Prism 9 (9.0.0). All experiments were performed in triplicate (n = 3).

Assay [10] concerns the target T2, Human Topoisomerase I (Homo sapiens, UniProt P11387).
T2 construct: purchased Inspiralis, UK
T2 sequence (P11387 1-765): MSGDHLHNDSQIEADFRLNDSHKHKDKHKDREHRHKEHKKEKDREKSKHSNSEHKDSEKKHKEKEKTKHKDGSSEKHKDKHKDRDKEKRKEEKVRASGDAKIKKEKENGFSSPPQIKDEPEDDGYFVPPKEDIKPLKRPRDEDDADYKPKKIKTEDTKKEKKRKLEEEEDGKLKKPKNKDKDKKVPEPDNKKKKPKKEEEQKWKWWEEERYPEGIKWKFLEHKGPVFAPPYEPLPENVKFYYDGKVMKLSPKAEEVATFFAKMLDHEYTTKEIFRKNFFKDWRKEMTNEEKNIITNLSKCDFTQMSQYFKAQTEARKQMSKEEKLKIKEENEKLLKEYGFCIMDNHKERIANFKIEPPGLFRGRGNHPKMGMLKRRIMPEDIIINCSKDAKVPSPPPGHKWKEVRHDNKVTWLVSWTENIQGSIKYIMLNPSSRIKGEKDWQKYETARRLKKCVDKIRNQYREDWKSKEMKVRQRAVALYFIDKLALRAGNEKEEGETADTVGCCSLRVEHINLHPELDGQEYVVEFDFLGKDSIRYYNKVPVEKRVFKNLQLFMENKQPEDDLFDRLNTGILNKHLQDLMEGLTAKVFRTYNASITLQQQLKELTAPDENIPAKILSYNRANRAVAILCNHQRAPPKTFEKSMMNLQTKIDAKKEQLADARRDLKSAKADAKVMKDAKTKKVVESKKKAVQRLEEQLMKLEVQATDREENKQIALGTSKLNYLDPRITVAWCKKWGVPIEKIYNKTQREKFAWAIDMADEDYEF
Kind of assay: Topoisomerase I DNA cleavage assay. The format is biochemical. Particulars: supercoil pBR322, 30 min, 37 °C; nick DNA; two independent times. The procedure:
Topoisomerase I/II cleavage assay: A commercial Human topoisomerase cleavage assay kit (Inspiralis, UK) was used in this study with a slight modification. Camptothecin (Sigma, USA) and Etoposide (Sigma, USA) were used as the positive control for topoisomerase I cleavage assay and topoisomerase II cleavage assay, respectively. The assay was performed according to the manufacture’s protocol. Briefly, 29 µL of the master mixture was prepared by adding 3 µL of 10 x assay buffer, 1 µL of 1 µg/µL supercoil pBR322, 1 µL of 30 mM ATP (only used in topoisomerase II cleavage assay), 1.5 µL serial diluted compounds (dissolved in DMSO) and H2O. Finally, 1 µL of 10 U/µL human topoisomerase I/II alpha was added to the reaction mixture. The reaction was incubated for 30 minutes at 37℃. After incubation, 3 µL of 2% (w/v) SDS and 1.5 µL of 10 mg/mL proteinase K was added. The reaction was mixed briefly and incubated for another 30 minutes at 37 ℃. The reaction was stopped by added 10 µL of H2O, 40 µL of STEB stop buffer and 40 µL of Chloroform/isoamyl alcohol (v:v, 24:1). The mixture was vortexed vigorously for 10 secs and centrifuged for 2 minutes. 20 µL of aqueous phase was loaded onto 1% (w/v) agarose gel and separated at 80 V for 2 hours in 0.5% TBE buffer. […]

T1 sequence (P11388 whole entry): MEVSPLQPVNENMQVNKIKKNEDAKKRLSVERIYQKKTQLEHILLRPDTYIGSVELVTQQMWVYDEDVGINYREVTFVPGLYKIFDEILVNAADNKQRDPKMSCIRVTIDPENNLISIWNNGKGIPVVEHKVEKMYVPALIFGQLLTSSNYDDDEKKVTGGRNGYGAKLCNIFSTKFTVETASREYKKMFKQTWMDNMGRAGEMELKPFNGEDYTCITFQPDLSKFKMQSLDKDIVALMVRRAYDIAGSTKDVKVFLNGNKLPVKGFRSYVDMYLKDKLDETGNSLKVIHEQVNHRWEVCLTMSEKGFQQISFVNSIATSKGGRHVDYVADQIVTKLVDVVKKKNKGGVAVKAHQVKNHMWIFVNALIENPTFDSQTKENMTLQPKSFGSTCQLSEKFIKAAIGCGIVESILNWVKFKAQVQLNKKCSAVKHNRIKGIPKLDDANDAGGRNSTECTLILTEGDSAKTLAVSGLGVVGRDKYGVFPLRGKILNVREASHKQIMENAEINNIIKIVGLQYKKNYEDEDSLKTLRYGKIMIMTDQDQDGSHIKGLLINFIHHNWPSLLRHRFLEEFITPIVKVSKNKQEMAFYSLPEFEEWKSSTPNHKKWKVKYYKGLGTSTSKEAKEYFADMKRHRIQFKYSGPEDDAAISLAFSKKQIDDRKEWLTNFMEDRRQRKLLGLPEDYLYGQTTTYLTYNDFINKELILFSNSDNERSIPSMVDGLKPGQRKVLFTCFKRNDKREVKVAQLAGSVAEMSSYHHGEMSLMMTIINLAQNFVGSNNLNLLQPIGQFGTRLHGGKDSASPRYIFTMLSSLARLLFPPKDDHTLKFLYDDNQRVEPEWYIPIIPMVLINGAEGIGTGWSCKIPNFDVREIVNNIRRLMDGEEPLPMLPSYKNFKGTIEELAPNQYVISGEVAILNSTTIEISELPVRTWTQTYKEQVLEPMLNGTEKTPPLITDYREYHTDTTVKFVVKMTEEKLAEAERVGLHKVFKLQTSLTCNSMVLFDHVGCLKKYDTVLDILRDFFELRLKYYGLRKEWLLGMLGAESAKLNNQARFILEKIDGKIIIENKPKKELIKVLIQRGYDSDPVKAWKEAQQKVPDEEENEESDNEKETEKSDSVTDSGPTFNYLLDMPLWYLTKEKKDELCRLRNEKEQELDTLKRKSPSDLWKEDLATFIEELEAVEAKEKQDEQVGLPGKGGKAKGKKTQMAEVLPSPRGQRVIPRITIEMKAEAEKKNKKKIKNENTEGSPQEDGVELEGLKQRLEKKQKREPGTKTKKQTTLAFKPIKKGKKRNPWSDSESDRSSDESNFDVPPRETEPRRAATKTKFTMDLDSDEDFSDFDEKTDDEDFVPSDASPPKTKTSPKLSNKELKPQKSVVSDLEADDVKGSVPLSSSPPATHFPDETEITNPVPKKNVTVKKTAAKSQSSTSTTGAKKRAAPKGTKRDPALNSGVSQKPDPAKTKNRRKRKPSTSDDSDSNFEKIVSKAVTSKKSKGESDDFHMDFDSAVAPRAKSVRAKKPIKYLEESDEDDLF

As for `CCCCCCCCCCCC(O)CC(=O)N[C@@H](C)C(=O)N[C@@H](CO)C(=O)N[C@@H](C)C(=O)Nc1ccc(-c2nc(-c3nc(C(=O)N[C@@H](CC(N)=O)C(=O)Nc4ccc(C(=O)Nc5ccc(C(=O)Nc6ccc(C(=O)O)cc6)c(O)c5OC(C)C)cc4)cs3)cs2)cc1` (stereo partly drawn) [Lapcin, 4-(4-(4-((2S)-4-amino-2-(2'-(4-((2S)-2-((2S)-3-hydroxy-2-((2S)-2-(3-hydroxytetradecanamido)propanamido)propanamido)propanamido)phenyl)-[2,4'-bithiazole]-4-carboxamido)-4-oxobutanamido)benzamido)-2-hydroxy-3-isopropoxybenzamido)benzoic acid], the IC50 in assay [1] was 0.504 nM; in [2], 923 nM; in assay [3], 48.4 nM; in [4], 0.516 nM; in assay [5] it was 35.1 nM; in assay [6], 0.0168 nM. Also, the IC50 in assay [7] (lung cancer, MTT, 48 h, 37 °C, RPMI-1640 + 10% FBS, 10,000 cells/well, absorbance 570 nm, n = 3 biologically independent) is 241 nM; in assay [8] (bone cancer, MTT, 48 h, 37 °C, DMEM + 10% FBS + NEAA, 2,500 cells/well, absorbance 570 nm, n = 3 biologically independent), 1.29 nM; in assay [9] (kDNA, 1 U enzyme, 30 min, 37 °C, gel, ethidium bromide, n = 3), 7530 nM. For the same compound, in assay [7] (compared with etoposide), the “potency vs etoposide, NCI-H226” value is recorded as “essentially equipotent”. For the same compound, the “activity against U2OS in words” value in assay [8] (human bone osteosarcoma epithelial cell line U2OS) is reported as “retained potent activity”. Besides, the “fold more potent than etoposide, topoisomerase II” value in [9] was ~15 times. Further, the “accumulation of cleavage product, Topo I” value in [10] was “did not observe the accumulation of a cleavage product”.

Usually IC50 stands for the concentration that gives 50% inhibition.
